Results as given in US11161855B2, “Tricyclic fused thiophene derivatives as JAK inhibitors” (Incyte Corporation, priority 2012, dated 2021).

Tested on: human JAK1 (a.a. 837-1142)
Test: In vitro JAK kinase assay (HTRF), JAK1
Format: biochemical
Conditions: ratio of IC50s, 1 mM ATP
Protocol: Compounds herein were tested for inhibitory activity of JAK targets according to the following in vitro assay described in Park et al., Analytical Biochemistry 1999, 269, 94-104. The catalytic domains of human JAK1 (a.a. 837-1142), JAK2 (a.a. 828-1132) and JAK3 (a.a. 781-1124) were expressed using baculovirus in insect cells and purified. The catalytic activity of JAK1, JAK2 or JAK3 was assayed by measuring the phosphorylation of a biotinylated peptide. The phosphorylated peptide was detected by homogenous time resolved fluorescence (HTRF). IC50s of compounds were measured for each kinase in the 40 μL reactions that contain the enzyme, ATP and 500 nM peptide in 50 mM Tris (pH 7.8) buffer with 100 mM NaCl, 5 mM DTT, and 0.1 mg/mL (0.01%) BSA. For the 1 mM IC50 measurements, ATP concentration in the reactions was 1 mM. Reactions were carried out at room temperature for 1 hour and then stopped with 20 μL 45 mM EDTA, 300 nM SA-APC, 6 nM Eu-Py20 in assay buffer (Perkin Elmer, Boston, Mass.). Binding to the Europium labeled antibody took place for 40 minutes and HTRF signal was measured on a PHERA star plate reader (BMG, Cary, N.C.). The Example compounds were each tested in the Example A assay (see Table 1 for data for the compounds of the examples as tested by the assay of Example A at 1 mM ATP).

Structure (SMILES) | JAK2/JAK1
CCc1nc2cnc3ccsc3c2n1[C@H]1CC[C@H](CC#N)OC1 [Example 39, [(2R,5S)-5-(2-Ethyl-1H-imidazo[4,5-d]thieno[3,2-b]pyridin-1-yl)tetrahydro-2H-pyran-2-yl]acetonitrile] | >10
C[C@@H](O)c1nc2cnc3ccsc3c2n1[C@H]1CC[C@@H](n2cncn2)CC1 [Example 6, (1R)-1-{1-[cis-4-(1H-1,2,4-Triazol-1-yl)cyclohexyl]-1H-imidazo[4,5-d]thieno[3,2-b]pyridin-2-yl}ethanol] | >6
CS(=O)(=O)NCc1nc2cnc3ccsc3c2n1[C@H]1CC[C@H](CC#N)CC1 [Example 18, N-({1-[trans-4-(Cyanomethyl)cyclohexyl]-1H-imidazo[4,5-d]thieno[3,2-b]pyridin-2-yl}methyl)methanesulfonamide] | >10
CCOC(=O)NC[C@H]1CC[C@H](n2c(CC#N)nc3cnc4ccsc4c32)CC1 [Example 87, Ethyl ({trans-4-[2-(cyanomethyl)-1H-imidazo[4,5-d]thieno[3,2-b]pyridin-1-yl]cyclohexyl}methyl)carbamate] | >10
C[C@@H](O)c1nc2cnc3ccsc3c2n1C1CCNCC1F (stereo partly drawn) [9 (2nd peak), (1R)-1-[1-(3-Fluoropiperidin-4-yl)-1H-imidazo[4,5-d]thieno[3,2-b]pyridin-2-yl]ethanol] | >10
C[C@@H](O)c1nc2cnc3ccsc3c2n1[C@H]1CCCN(C(=O)CCc2ccccc2)C1 [Example 57] | >10
N#CC[C@H]1CC[C@H](n2c(C3CNC3)nc3cnc4ccsc4c32)CC1 [Example 28, [trans-4-(2-Azetidin-3-yl-1H-imidazo[4,5-d]thieno[3,2-b]pyridin-1-yl)cyclohexyl]acetonitrile] | >7
N#CC[C@H]1CC[C@H](n2c(C3CC3)nc3cnc4ccsc4c32)CO1 [Example 43, [(2R,5S)-5-(2-Cyclopropyl-1H-imidazo[4,5-d]thieno[3,2-b]pyridin-1-yl)tetrahydro-2H-pyran-2-yl]acetonitrile] | >10
CCc1nc2cnc3ccsc3c2n1[C@H]1CC[C@H](CC#N)CC1 [Example 47, [trans-4-(2-Ethyl-1H-imidazo[4,5-d]thieno[3,2-b]pyridin-1-yl)cyclohexyl]acetonitrile] | >10
N#CCC1CCC(CO)(n2cnc3cnc4ccsc4c32)CC1 (single isomer, unassigned) [72 (second peak), [4-(Hydroxymethyl)-4-(1H-imidazo[4,5-d]thieno[3,2-b]pyridin-1-yl)cyclohexyl]acetonitrile] | >5
N#CCc1nc2cnc3ccsc3c2n1[C@H]1CC[C@H](CC#N)OC1 [Example 73, {(2R,5S)-5-[2-(Cyanomethyl)-1H-imidazo[4,5-d]thieno[3,2-b]pyridin-1-yl]tetrahydro-2H-pyran-2-yl}acetonitrile] | >10
CS(=O)(=O)NCc1nc2cnc3ccsc3c2n1[C@H]1CC2CCC1C2 (stereo partly drawn) [Example 22, N-((1-((2S)-Bicyclo[2.2.1]heptan-2-yl)-1H-imidazo[4,5-d]thieno[3,2-b]pyridin-2-yl)methyl)methanesulfonamide] | >4
CCCOC(=O)NC[C@H]1CC[C@H](n2c([C@@H](C)O)nc3cnc4ccsc4c32)CC1 [Example 83, Propyl [(trans-4-{2-[(1R)-1-hydroxyethyl]-1H-imidazo[4,5-d]thieno[3,2-b]pyridin-1-yl}cyclohexyl)methyl]carbamate] | >10
Cc1nc2cnc3ccsc3n2c1-c1ccc(CC#N)cc1 [Example 33, [4-(7-Methylimidazo[1,2-a]thieno[3,2-e]pyrazin-8-yl)phenyl]acetonitrile] | >7

The next lines start with the values.

JAK2/JAK1 | Structure (SMILES)
>10 | C[C@@H](O)c1nc2cnc3ccsc3c2n1[C@H]1CC[C@H](CCS(C)(=O)=O)CC1 [Example 5, (1R)-1-(1-{trans-4-[2-(Methylsulfonyl)ethyl]cyclohexyl}-1H-imidazo[4,5-d]thieno[3,2-b]pyridin-2-yl)ethanol]
>10 | CC(=O)NC[C@H]1CC[C@H](n2c([C@@H](C)O)nc3cnc4ccsc4c32)CC1 [Example 79, N-[(trans-4-{2-[(1R)-1-Hydroxyethyl]-1H-imidazo[4,5-d]thieno[3,2-b]pyridin-1-yl}cyclohexyl)methyl]acetamide]
>10 | C[C@@H](O)c1nc2cnc3ccsc3c2n1[C@H]1CC[C@H](CC#N)OC1 [Example 20, ((2R,5S)-5-{2-[(1R)-1-Hydroxyethyl]-1H-imidazo[4,5-d]thieno[3,2-b]pyridin-1-yl}tetrahydro-2H-pyran-2-yl)acetonitrile]
>10 | C[C@@H](O)c1nc2cnc3ccsc3c2n1[C@H]1CCCN(C(=O)CC#N)C1.O=C(O)C(F)(F)F [Example 51, 3-((3S)-3-{2-[(1R)-1-Hydroxyethyl]-1H-imidazo[4,5-d]thieno[3,2-b]pyridin-1-yl}piperidin-1-yl)-3-oxopropanenitrile trifluoroacetate]
>10 | C[C@@H](O)c1nc2cnc3ccsc3c2n1[C@@H]1CC[C@@H](CC#N)OC1 [Example 44, ((2S,5R)-5-{2-[(1R)-1-Hydroxyethyl]-1H-imidazo[4,5-d]thieno[3,2-b]pyridin-1-yl}tetrahydro-2H-pyran-2-yl)acetonitrile]
>10 | C[C@@H](O)c1nc2cnc3ccsc3c2n1[C@H]1CC[C@H](CO)CC1 [Example 11, (1R)-1-{1-[trans-4-(Hydroxymethyl)cyclohexyl]-1H-imidazo[4,5-d]thieno[3,2-b]pyridin-2-yl}ethanol]
>10 | CC(C)c1nc2cnc3ccsc3c2n1[C@H]1CC[C@H](CC#N)CC1 [Example 27, [trans-4-(2-Isopropyl-1H-imidazo[4,5-d]thieno[3,2-b]pyridin-1-yl)cyclohexyl]acetonitrile]
>10 | C[C@H](O)c1nc2cnc3ccsc3c2n1[C@H]1CC[C@H](CC#N)OC1 [Example 45, ((2R,5S)-5-{2-[(1S)-1-Hydroxyethyl]-1H-imidazo[4,5-d]thieno[3,2-b]pyridin-1-yl}tetrahydro-2H-pyran-2-yl)acetonitrile]
>2 | C[C@@H](O)c1nc2cnc3ccsc3c2n1C1CCC(NCCC#N)CC1 (single isomer, unassigned) [30 (first peak)]
>6 | C[C@@H](O)c1nc2cnc3ccsc3c2n1[C@H]1CCN(C(=O)CC#N)C1 [Example 63, 3-((3S)-3-{2-[(1R)-1-Hydroxyethyl]-1H-imidazo[4,5-d]thieno[3,2-b]pyridin-1-yl}pyrrolidin-1-yl)-3-oxopropanenitrile]
>10 | CNC(C)c1nc2cnc3ccsc3c2n1[C@H]1CC[C@H](CC#N)OC1 (stereo partly drawn) [Example 70, ((2R,5S)-5-{2-[1-(Methylamino)ethyl]-1H-imidazo[4,5-d]thieno[3,2-b]pyridin-1-yl}tetrahydro-2H-pyran-2-yl)acetonitrile]
>10 | C[C@@H](O)c1nc2cnc3ccsc3c2n1[C@H]1CC[C@@H](CC#N)C1.O=C(O)C(F)(F)F [Example 49, ((1R,3S)-3-{2-[(1R)-1-Hydroxyethyl]-1H-imidazo[4,5-d]thieno[3,2-b]pyridin-1-yl}cyclopentyl)acetonitrile Trifluoroacetate]
>10 | C[C@@H](O)c1nc2cnc3ccsc3c2n1[C@H]1CC[C@@H](CC#N)OC1 [Example 21, ((2S,5S)-5-{2-[(1R)-1-Hydroxyethyl]-1H-imidazo[4,5-d]thieno[3,2-b]pyridin-1-yl}tetrahydro-2H-pyran-2-yl)acetonitrile]
